Patent US20130144068A1, “Methods for the Sterilization of Bendamustine” (Cephalon, Inc., priority 2010, published 2013)

Tests used:
[1] = HPLC purity of bendamustine HCl after sterilization; format: physicochemical
Description: (§1) 100 mg each of bendamustine HCl was weighed into a 20 mL tubing vial, a 20 mL amber vial, and a 20 mL clear vial. Rubber stoppers were inserted and aluminum caps crimped on. The vials were passed through a gamma irradiation line and received doses in the range of 29.3 kGy to about 32.3 kGy. Purity and sterility testing was then performed.
as §1, with “an electron beam” for “a gamma”, “a dose” for “doses in the range”, “of” for “of 29.3 kGy to”, “30” for “32.3”
To each 10 mg of bendamustine HCl, sterilized according to the methods described above, was added 10 mL N-methyl-2-pyrrolidone (NMP). A reference standard of bendamustine HCl was prepared in NMP having a concentration of 1 mg/mL. HPLC was performed according to conventional methods.

[2] = heating; background statement; cited from earlier work

Cl.Cn1c(CCCC(=O)O)nc2cc(N(CCCl)CCCl)ccc21 [bendamustine HCl, Bendamustine hydrochloride]
HPLC purity (% area) ([1]; after E-beam irradiation, about 30 kGy, 100 mg solid in amber vial): 99.70 % area
HPLC purity (% area) ([1]; after E-beam irradiation, about 30 kGy, 100 mg solid in clear vial): 99.70 % area
HPLC purity (% area) ([1]; after gamma irradiation, 29.3 kGy to about 32.3 kGy, 100 mg solid in amber vial): 99.70 % area
HPLC purity (% area) ([1]; after gamma irradiation, 29.3 kGy to about 32.3 kGy, 100 mg solid in clear vial): 99.64 % area
Temperature at which the solid chars when heated [2]: 160 °C
